From publication PMC5351712 (Future Science OA, 2017)
Where two headings read alike, the source gives them in different places.

How the values were obtained:
[1] = single oral 20 mg EPL maleate, 12 healthy volunteers; cited from earlier work
[2] = Stability of EPL and EPLT in human plasma under different storage conditions; assay type: physicochemical; details: n = 6
Description: The bench-top stability was performed for each analyte in plasma was determined by three QC levels in six replicates for 8 h at ambient temperature (24 ± 2°C). […] For determination of freeze–thaw stability of the analytes, the spiked plasma samples were frozen for 24 h at -20°C and thawed unassisted at room temperature. When completely thawed, the samples were refrozen for 12–24 h at -20°C. On repeating the freeze−thaw cycle for 2 days, bioanalysis was done on the third day. For short-term stability, frozen plasma samples (-20°C) were kept at room temperature for 4 h before sample processing. Long-term stability was evaluated after storing the frozen plasma samples at -20°C for the whole duration of the study which was almost 30 days. […]

[3] = cited from earlier work; for Time of maximum plasma concentration: after oral administration of EPL
[4] = parameters: method as in GC–MS method; details: single oral 20 mg EPL, 24 healthy adult subjects, mean ± SD; analyte not stated; ref GC–MS method; cited from earlier work
[5] = parameters: method as in ref 36 = [36]; 36 Remko M Acidity, lipophilicity, solubility, absorption, and polar surface area of some ACE inhibitors Chem. Pap. 61 133 141 2007; details: cited from earlier work
[6] = parameters: method as in ref 7 = [7]; 7 Yoon KH Kim W Park J Kim HJ Determination of enalapril in human plasma by high performance liquid chromatography-electrospray ionization mass spectrometry Bull. Korean Chem. Soc. 25 878 880 2004; details: after oral intake, mean value; cited from earlier work
[7] = cited from earlier work
[8] = Autosampler stability 24 h at 24°C, QC 3 ng/ml
[9] = Autosampler stability 24 h at 24°C, QC 200 ng/ml
[10] = Autosampler stability 24 h at 24°C, QC 400 ng/ml
[11] = Bench top stability for 8 h, QC 3 ng/ml
[12] = Bench top stability for 8 h, QC 200 ng/ml
[13] = Bench top stability for 8 h, QC 400 ng/ml
[14] = Freeze and thaw stability at -20°C (3 cycles), QC 3 ng/ml
[15] = Freeze and thaw stability at -20°C (3 cycles), QC 200 ng/ml
[16] = Freeze and thaw stability at -20°C (3 cycles), QC 400 ng/ml
[17] = Long-term stability at -20.0°C for 30 days, QC 3 ng/ml
[18] = Long-term stability at -20.0°C for 30 days, QC 200 ng/ml
[19] = Long-term stability at -20.0°C for 30 days, QC 400 ng/ml

Row | Accuracy after storage [2, 8] [%] | Mean concentration after storage [2, 8] [ng/mL] | Accuracy after storage [2, 9] [%] | Mean concentration after storage [2, 9] [ng/mL] | Accuracy after storage [2, 10] [%] | Mean concentration after storage [2, 10] [ng/mL] | Mean concentration after storage [2, 11] [ng/mL] | Accuracy after storage [2, 12] [%] | Mean concentration after storage [2, 12] [ng/mL] | Accuracy after storage [2, 13] [%] | Mean concentration after storage [2, 13] [ng/mL] | Accuracy after storage [2, 14] [%] | Mean concentration after storage [2, 14] [ng/mL] | Accuracy after storage [2, 15] [%] | Mean concentration after storage [2, 15] [ng/mL] | Accuracy after storage [2, 16] [%] | Mean concentration after storage [2, 16] [ng/mL] | Accuracy after storage [2, 17] [%] | Mean concentration after storage [2, 17] [ng/mL] | Structure (SMILES) | Cmax [1] [ng/mL] | other results
1 | 92.6446 | 2.7500 | 100.4675 | 200.9350 | 92.6098 | 384.6733 | 2.7350 | 100.3303 | 200.9567 | 99.2485 | 412.2483 | 91.6339 | 2.7200 | 94.7244 | 189.7283 | 93.5010 | 388.3750 | 90.9601 | 2.7000 | CCOC(=O)[C@H](CCc1ccccc1)N[C@@H](C)C(=O)N1CCC[C@H]1C(=O)O [EPL, enalapril] | 152.1 | Accuracy after storage [2, 11]: 92.1392%; Accuracy after storage [2, 18]: 98.6628%; Mean concentration after storage [2, 18]: 197.6167 ng/mL; Accuracy after storage [2, 19]: 94.6810%; Mean concentration after storage [2, 19]: 393.2767 ng/mL; Plasma level after 4 h ([3]; after 4 h not detected above this level): ≤ 10 ng/mL; Time of maximum plasma concentration [3]: ≤ 1 h; Dose recovered in the urine and feces as EPL or EPLT [3]: approximately 94%; Influence of food on absorption after oral administration [3]: not influenced by the presence of food; Terminal half-life [3]: approximately 2 h; Bioavailability ([3]; healthy subjects, absorbed from the GI tract): 60–70%; T1/2 [4]: 4.2 ± 1.6 h; pK a (strongest acidic) [5]: 3.0; polar surface area [5]: 95.9; Tmax [6]: 0.96 ± 0.36 h
2 | 98.5516 | 2.6650 | 93.8950 | 187.7900 | 92.5255 | 365.4017 | 2.8833 | 102.2798 | 190.4450 | 98.0713 | 387.3033 | 87.8274 | 2.3750 | 95.3222 | 177.4900 | 88.2284 | 348.4317 | 92.3267 | 2.4967 | C[C@H](N[C@@H](CCc1ccccc1)C(=O)O)C(=O)N1CCC[C@H]1C(=O)O [EPLT, enalaprilat] | 88.5 | AUC0–t [7]: 401 ± 89 ng·h/mL; AUC0–∞ [7]: 420 ± 91 ng·h/mL; Cmax [7]: 47.5 ± 12.4 ng/mL; T1/2 [7]: 6.71 ± 2.22 h; Tmax [7]: 4.20 ± 1.06 h; Accuracy after storage [2, 18]: 105.6740%; Mean concentration after storage [2, 18]: 196.7650 ng/mL; Accuracy after storage [2, 19]: 99.7772%; Mean concentration after storage [2, 19]: 394.0400 ng/mL; Half-life ([3]; EPLT after administration of EPL): 30 to 35 h; Time of maximum plasma concentration [3]: 3 to 4 h
